Tested on: rats
Assay: 4-hour single-inhalation exposure test (OECD Guideline No. 436)
Format: in vivo
Description: A 4-hour single-inhalation exposure test was performed on rats by using a mist of HCFO-1223xd according to the OECD Guideline No. 436.

`FC(F)(F)C(Cl)=CCl` [HCFO-1223xd, 1,2-dichloro-3,3,3-trifluoropropene] was tested, and the “death of rats on inhalation exposure” value (4-hour single inhalation, mist at a concentration of 5 mg/L) was “No death of the rats was observed” and the acute toxicity (4-hour single-inhalation exposure, OECD Guideline No. 436) was “low acute toxicity”.
